Legend:
Assay type in all cases: in vivo
[1] = tested on: barnyardgrass (Echinochloa crus-galli); assay: Test B flooded paddy test, barnyardgrass; details: Echinochloa crus-galli; 250 g ai/ha, Flood; visual rating after 13 to 15 days; scale 0 to 100, 0 is no effect, 100 is complete control; read-out: Plant response rating, Barnyardgrass
Method in brief: (§1)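 Visual ratings, 0 = no effect to 100 = complete control, versus controls after 13 to 15 days in greenhouse. Test compounds were added to paddy water kept 3 cm over the soil surface, on plants at 2-leaf stage.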

[2] = tested on: wheat (Triticum aestivum); assay: Test A postemergence, wheat; details: Triticum aestivum, post-emergence, 240 h, postemergence, 0 to 100 scale, 0 is no effect, 100 is complete control, approximately 10 days, read-out: Plant response rating, Wheat; for plant injury at 31 g/ha: 31 g ai/ha; for plant injury at 125 g/ha: 125 g ai/ha
Method in brief: (§2)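 Planted seeds in loam soil mixed with sand; sprayed soil directly (pre). Grew seedlings to one- to two-leaf stage, 2–10 cm; sprayed foliage (post). Held in greenhouse ~10 days. Rated injury visually vs untreated controls, 0–100.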

[3] = tested on: foxtail, giant (giant foxtail, Setaria faberii); assay: Test A preemergence, giant foxtail; details: Setaria faberi, pre-emergence, 240 h, Preemergence, 0 to 100 scale (0 no effect, 100 complete control), read-out: Plant response rating, Foxtail, Giant; for pest or weed control at 31 g/ha: 31 g ai/ha; for pest or weed control at 125 g/ha: 125 g ai/ha
Method in brief: as §2

[4] = tested on: ducksalad (Heteranthera limosa); assay: Test B flooded paddy test, ducksalad; details: Heteranthera limosa; 250 g ai/ha, Flood; visual rating after 13 to 15 days; scale 0 to 100, 0 is no effect, 100 is complete control; read-out: Plant response rating, Ducksalad
Method in brief: as §1

[5] = tested on: galium (catchweed bedstraw, Galium aparine); assay: Test A postemergence, galium; details: Galium, post-emergence, 240 h, postemergence, 0 to 100 scale, 0 is no effect, 100 is complete control, approximately 10 days, read-out: Plant response rating, Galium; for pest or weed control at 31 g/ha: 31 g ai/ha; for pest or weed control at 125 g/ha: 125 g ai/ha
Method in brief: as §2

kochia (Kochia scoparia) [6] = assay: Test A preemergence, kochia; details: Bassia scoparia, pre-emergence, 240 h, Preemergence, 0 to 100 scale (0 no effect, 100 complete control), read-out: Plant response rating, Kochia; for pest or weed control at 31 g/ha: 31 g ai/ha; for pest or weed control at 125 g/ha: 125 g ai/ha
Method in brief: as §2

kochia (Kochia scoparia) [7] = assay: Test A postemergence, kochia; details: Bassia scoparia, post-emergence, 240 h, postemergence, 0 to 100 scale, 0 is no effect, 100 is complete control, approximately 10 days, read-out: Plant response rating, Kochia; for pest or weed control at 31 g/ha: 31 g ai/ha; for pest or weed control at 125 g/ha: 125 g ai/ha
Method in brief: as §2

[8] = tested on: ryegrass, Italian (Italian ryegrass, Lolium multiflorum); assay: Test A preemergence, Italian ryegrass; details: Lolium multiflorum, pre-emergence, 240 h, Preemergence, 0 to 100 scale (0 no effect, 100 complete control), read-out: Plant response rating, Ryegrass, Italian; for pest or weed control at 31 g/ha: 31 g ai/ha; for pest or weed control at 125 g/ha: 125 g ai/ha
Method in brief: as §2

[9] = tested on: pigweed (Amaranthus retroflexus); assay: Test A postemergence, pigweed; details: Amaranthus retroflexus, post-emergence, 240 h, postemergence, 0 to 100 scale, 0 is no effect, 100 is complete control, approximately 10 days, read-out: Plant response rating, Pigweed; for pest or weed control at 31 g/ha: 31 g ai/ha; for pest or weed control at 125 g/ha: 125 g ai/ha
Method in brief: as §2

rice (Oryza sativa) = assay: Test B flooded paddy test, rice; details: Oryza sativa; 250 g ai/ha, Flood; visual rating after 13 to 15 days; scale 0 to 100, 0 is no effect, 100 is complete control; read-out: Plant response rating, Rice
Method in brief: as §1

[10] = tested on: sedge, umbrella (small-flower umbrella sedge, Cyperus difformis); assay: Test B flooded paddy test, umbrella sedge; details: Cyperus difformis; 250 g ai/ha, Flood; visual rating after 13 to 15 days; scale 0 to 100, 0 is no effect, 100 is complete control; read-out: Plant response rating, Sedge, Umbrella
Method in brief: as §1

[11] = tested on: barnyardgrass (Echinochloa crus-galli); assay: Test A preemergence, barnyardgrass; details: Echinochloa crus-galli, pre-emergence, 240 h, Preemergence, 0 to 100 scale (0 no effect, 100 complete control), read-out: Plant response rating, Barnyardgrass; for pest or weed control at 31 g/ha: 31 g ai/ha; for pest or weed control at 125 g/ha: 125 g ai/ha
Method in brief: as §2

[12] = tested on: foxtail, giant (giant foxtail, Setaria faberii); assay: Test A postemergence, giant foxtail; details: Setaria faberi, post-emergence, 240 h, postemergence, 0 to 100 scale, 0 is no effect, 100 is complete control, approximately 10 days, read-out: Plant response rating, Foxtail, Giant; for pest or weed control at 31 g/ha: 31 g ai/ha; for pest or weed control at 125 g/ha: 125 g ai/ha
Method in brief: as §2

corn (Zea mays) = assay: Test A postemergence, corn; details: Zea mays, post-emergence, 240 h, postemergence, 0 to 100 scale, 0 is no effect, 100 is complete control, approximately 10 days; for Corn plant response rating (crop injury, 0 = no effect, 100 = complete kill) at 31 g/ha: 31 g ai/ha; for Corn plant response rating (crop injury, 0 = no effect, 100 = complete kill) at 125 g/ha: 125 g ai/ha
Method in brief: as §2

[13] = tested on: pigweed (Amaranthus retroflexus); assay: Test A preemergence, pigweed; details: Amaranthus retroflexus, pre-emergence, 240 h, Preemergence, 0 to 100 scale (0 no effect, 100 complete control), read-out: Plant response rating, Pigweed; for pest or weed control at 31 g/ha: 31 g ai/ha; for pest or weed control at 125 g/ha: 125 g ai/ha
Method in brief: as §2

FC(F)(F)COc1c(Cl)cccc1Oc1ncc(Cl)cn1 [Compound 42]
pest or weed control at 250 g/ha [1]: 0%
plant injury at 31 g/ha [2]: 0%
plant injury at 125 g/ha [2]: 0%
pest or weed control at 31 g/ha [3]: 0%
pest or weed control at 125 g/ha [3]: 10%
pest or weed control at 250 g/ha [4]: 70%
pest or weed control at 31 g/ha [5]: 0%
pest or weed control at 125 g/ha [5]: 20%
pest or weed control at 31 g/ha (kochia (Kochia scoparia) [6]): 0%
pest or weed control at 125 g/ha (kochia (Kochia scoparia) [6]): 10%
pest or weed control at 31 g/ha (kochia (Kochia scoparia) [7]): 0%
pest or weed control at 125 g/ha (kochia (Kochia scoparia) [7]): 10%
pest or weed control at 31 g/ha [8]: 0%
pest or weed control at 125 g/ha [8]: 0%
pest or weed control at 31 g/ha [9]: 20%
pest or weed control at 125 g/ha [9]: 60%
plant injury at 250 g/ha (rice (Oryza sativa)): 0%
pest or weed control at 250 g/ha [10]: 60%
pest or weed control at 31 g/ha [11]: 0%
pest or weed control at 125 g/ha [11]: 10%
pest or weed control at 31 g/ha [12]: 0%
pest or weed control at 125 g/ha [12]: 10%
Corn plant response rating (crop injury, 0 = no effect, 100 = complete kill) at 31 g/ha (corn (Zea mays)): 0%
Corn plant response rating (crop injury, 0 = no effect, 100 = complete kill) at 125 g/ha (corn (Zea mays)): 10%
pest or weed control at 31 g/ha [13]: 0%
pest or weed control at 125 g/ha [13]: 60%

Cc1cccc(Oc2ncc(Cl)cn2)c1OCC(F)(F)F [Compound 63]
pest or weed control at 250 g/ha [1]: 0%
plant injury at 31 g/ha [2]: 0%
plant injury at 125 g/ha [2]: 0%
pest or weed control at 31 g/ha [3]: 0%
pest or weed control at 125 g/ha [3]: 0%
pest or weed control at 250 g/ha [4]: 100%
pest or weed control at 31 g/ha [5]: 0%
pest or weed control at 125 g/ha [5]: 0%
pest or weed control at 31 g/ha (kochia (Kochia scoparia) [6]): 0%
pest or weed control at 125 g/ha (kochia (Kochia scoparia) [6]): 0%
pest or weed control at 31 g/ha (kochia (Kochia scoparia) [7]): 0%
pest or weed control at 125 g/ha (kochia (Kochia scoparia) [7]): 0%
pest or weed control at 31 g/ha [8]: 0%
pest or weed control at 125 g/ha [8]: 0%
pest or weed control at 31 g/ha [9]: 0%
pest or weed control at 125 g/ha [9]: 0%
plant injury at 250 g/ha (rice (Oryza sativa)): 0%
pest or weed control at 250 g/ha [10]: 90%
pest or weed control at 31 g/ha [11]: 0%
pest or weed control at 125 g/ha [11]: 0%
pest or weed control at 31 g/ha [12]: 0%
pest or weed control at 125 g/ha [12]: 0%
Corn plant response rating (crop injury, 0 = no effect, 100 = complete kill) at 31 g/ha (corn (Zea mays)): 0%
Corn plant response rating (crop injury, 0 = no effect, 100 = complete kill) at 125 g/ha (corn (Zea mays)): 0%
pest or weed control at 31 g/ha [13]: 0%
pest or weed control at 125 g/ha [13]: 0%

FC(F)(F)COc1c(I)cccc1Oc1ncc(Cl)cn1 [Compound 65]
pest or weed control at 250 g/ha [1]: 20%
plant injury at 31 g/ha [2]: 0%
plant injury at 125 g/ha [2]: 0%
pest or weed control at 31 g/ha [3]: 30%
pest or weed control at 125 g/ha [3]: 100%
pest or weed control at 250 g/ha [4]: 100%
pest or weed control at 31 g/ha [5]: 30%
pest or weed control at 125 g/ha [5]: 50%
pest or weed control at 31 g/ha (kochia (Kochia scoparia) [6]): 20%
pest or weed control at 125 g/ha (kochia (Kochia scoparia) [6]): 90%
pest or weed control at 31 g/ha (kochia (Kochia scoparia) [7]): 80%
pest or weed control at 125 g/ha (kochia (Kochia scoparia) [7]): 100%
pest or weed control at 31 g/ha [8]: 0%
pest or weed control at 125 g/ha [8]: 10%
pest or weed control at 31 g/ha [9]: 70%
pest or weed control at 125 g/ha [9]: 100%
plant injury at 250 g/ha (rice (Oryza sativa)): 0%
pest or weed control at 250 g/ha [10]: 90%
pest or weed control at 125 g/ha [11]: 70%
pest or weed control at 31 g/ha [12]: 10%
pest or weed control at 125 g/ha [12]: 50%
Corn plant response rating (crop injury, 0 = no effect, 100 = complete kill) at 31 g/ha (corn (Zea mays)): 10%
Corn plant response rating (crop injury, 0 = no effect, 100 = complete kill) at 125 g/ha (corn (Zea mays)): 20%
pest or weed control at 31 g/ha [13]: 50%
pest or weed control at 125 g/ha [13]: 100%
